# Experimental data published in PubChem BioAssay AID2305 (GlaxoSmithKline (GSK), 2010).
# Tested on: P. falciparum 3D7 growth, pLDH absorbance
# Assay: blood-stage malaria parasite growth potency – strain 3D7, dose response (AID 2305)
row,Compound,IC50 [nM]
1,CN1CC=C(c2c[nH]c3ccc(Sc4ccccc4)cc23)CC1,360
2,Cc1ccc(Cn2c(N3CCC(C(=O)NCc4cccs4)CC3)nc3ccccc32)cc1,750
3,Oc1ccccc1CN1CCC2(CCCN(Cc3ccccc3F)C2)C1 (stereo unspecified),680
4,C=C[C@]1(C)C[C@@H](OC(=O)NC(=O)CCCS(=O)(=O)c2nnc(C)s2)[C@]2(C)[C@H](C)CC[C@]3(CCC(=O)[C@H]32)[C@@H](C)[C@@H]1O,30
5,O=C(Nc1ccnc(-c2cccnc2)n1)c1cc(C(F)(F)F)cc(C(F)(F)F)c1,820
6,CC(C)CCCC(C)NC[C@@H](O)[C@H](Cc1ccccc1)NC(=O)c1cc(N2CCCC2=O)cc(N(c2ccccc2)S(C)(=O)=O)c1 (stereo partly specified),60
7,O=C1NC(=O)C(c2cccc(NC(=O)c3ccncc3)c2)=C1c1ccccc1,740
8,CC(O)C1CCCCN1C(=O)c1cccc(-c2cccc(-c3nc4ccc(C(F)(F)F)cc4[nH]3)c2)c1 (stereo unspecified),280
9,CCc1cc(C(=O)c2cccc(C)c2)c(NC(=O)CN2CCN(C(=O)c3ccco3)CC2)s1,450
10,Nc1ccn([C@@H]2O[C@H](COC(c3ccccc3)(c3ccccc3)c3ccccc3)[C@@H](O)[C@@H]2O)c(=O)n1,830
11,CC[C@H]1CN2CC[C@@H]1C[C@H]2[C@H](O)c1cc(-c2c(C)noc2C)nc2ccc(OC)cc12,30
12,COc1ccc2[nH]cc(C3=CCN(Cc4ccccc4)CC3)c2c1,570
13,NC(N)=Nc1nc(-c2cccc(NC(=O)NCCc3c[nH]c4ccc(OCc5ccccc5)cc34)c2)cs1,810
14,CCOc1ccc(-c2nonc2NC(=O)c2ccccc2Cl)cc1OCC,740
15,CN1CCCC(CN2CCN(Cc3ccc(-c4ccc(-c5nc6ccccc6[nH]5)cc4)cc3)CC2)C1 (stereo unspecified),140
16,COc1ccc2nccc(NC(=O)C3CCC(NCc4cnc(SC)c([N+](=O)[O-])c4)CC3)c2n1 (stereo unspecified),930
17,O=C(Cc1cccc2ccccc12)N1CCc2cc3nccc(N4CCN5CCC[C@H]5C4)c3cc21,780
18,O=C(C=Cc1ccc(Cl)c(Cl)c1)NCCCCCN1CCCC(CCCNC(=O)[C@@H]2C[C@H]2c2ccccc2)C1 (stereo partly specified),1130
19,COc1ccc2nccc([C@@H](O)CN3CCC(NC(=O)C(c4cc5ccccc5o4)N4CCN(Cc5ccccc5)CC4)CC3)c2c1 (stereo partly specified),160
20,Cc1cc(-c2ccc3c(c2)CCN(CCC2CCC(NC(=O)/C=C/c4cccc(F)c4)CC2)CC3)on1 (stereo unspecified),750
21,Cc1cccc2[nH]c(-c3ccc(-c4cccc(NC(=O)Nc5ccsc5)c4)cc3)nc12,800
22,c1ccc(CNCc2cccc(-c3ccc(-c4nc5ccccc5[nH]4)s3)c2)cc1,820
23,N#Cc1ccc(CN2CCC(Oc3ccc(NC(=O)c4ccsc4)cc3Cl)C2)cc1 (stereo unspecified),670
24,CN(C)Cc1ccc(-c2ccc3ccnc(N)c3c2)cc1,380

row,Compound,IC50 [nM]
1,COc1ccc2nccc(NN=Cc3ccncc3)c2c1,580
2,COCCNCc1ccc(-c2cccc(CN(C(=O)NCCc3ccccc3)C3CCN(Cc4ccccc4)CC3)c2)cc1,920
3,Cc1c(-c2ccccc2)ccc2[nH]cc(CC#N)c12,700
4,O=C(c1cc2c(s1)-c1cccc(Cl)c1SC2)N1CCN(c2ccncc2)CC1,1010
5,Cc1ccc(NC(=O)Nc2ccc(Cl)c(C(F)(F)F)c2)cc1-c1ccc(C(=O)Nc2ccncc2)cc1,260
6,O=C(/C=C/c1cc(F)cc(C(F)(F)F)c1)N1CCC(CN2CCC(c3c[nH]c4ccccc34)CC2)CC1,760
7,O=C(Nc1ccc(Cl)c(Cl)c1)N1CCc2cc3nccc(N4CCN5CCC[C@H]5C4)c3cc21,630
8,COC(=O)c1ccccc1N1CCN(CCCCNC(=O)c2ccc(NC(=O)c3cc(Cl)cc(Cl)c3)cc2)CC1,560
9,c1ccc(Oc2ccc(Nc3ccnc4cc(-c5ccc(CNCCN6CCOCC6)o5)ccc34)cc2)nc1,1440
10,CN1CCC(N(Cc2ccc(N3CCN(Cc4c[nH]c5ccc(Cl)cc45)CC3)nc2)C2CC2)CC1,1000
11,Cc1cccc2[nH]c(-c3cccc(-c4cccc(NC(=O)c5cncn5C)c4)c3)nc12,170
12,CCC(CN1C(=O)C(c2ccccc2)(c2ccccc2)N=C1N)c1ccccc1 (stereo unspecified),140
13,COc1cc(C(=O)N2CCN(C(C)C)CC2)ccc1CN(C)CCCCN1CCN(c2cccc(Cl)c2Cl)CC1,700
14,CC(CNC(=O)C(c1cc2ccccc2o1)N1CCN(C(c2ccccc2)c2ccccc2)CC1)c1ccccc1 (stereo unspecified),630
15,O=C(Cc1ccc(-c2ccccc2)cc1)N[C@H]1CCN(Cc2ccc(OCCCN3CCCCC3)cc2)C1,770
16,Cc1cc(N[C@@H](CC(C)C)C(=O)NCc2cccc(F)c2)nc(NCCc2ccc(F)cc2)n1,1470
17,CCCCCCCCn1ccc(=N)cc1,840
18,C[C@H](Nc1c(Nc2ccc3[nH]ccc3c2)c(=O)c1=O)C1CCCCC1,210
19,C=CCn1c(Sc2ccc(C#N)c([N+](=O)[O-])c2)nnc1-c1ccc(Cl)cc1,670
20,COC(=O)C(=O)c1c(-c2ccccc2)c(-c2ccc(OC)c(OC)c2)c2c3cc(OC)c(OC)cc3ccn12,640
21,CCOc1ccc(C(C)NC(=O)c2ccc(OC)c(Br)c2)cc1OCC (stereo unspecified),710
22,Nc1nccc2ccc(Oc3ccncc3)cc12,480
23,Cc1ccc(C(=O)Nc2cccc(CN3CCCN(Cc4ccc(O)cc4)CC3)c2)cc1,1090
24,Nc1nc(N)c2c3c(ccc2n1)NCCC3,730

row,Compound,IC50 [nM]
1,COc1ccc(NC(=O)Nc2ccc(C)c(-c3ccc(C(=O)NCCN4CCCC4)cc3)c2)cc1,900
2,CCOC(C(=O)OCC1CCCN1C(C)C)(c1ccccc1)c1ccccc1 (stereo unspecified),760
3,CC1(C)N=C(N)N=C(N)N1O,190
4,CCc1cn(C)c2c(N3CCCC3=O)cc(C(=O)N[C@@H](Cc3ccccc3)[C@H](O)CNC(C)(C)c3cccc(OC)c3)cc12,40
5,O=C(Nc1cccc(CN2CCN(C(=O)c3cccs3)CC2)c1)c1cccs1,780
6,c1cc(CNCCc2ccncc2)cc(-c2csc(-c3nc4ccccc4[nH]3)c2)c1,260
7,COc1cc(NCCCNCC2c3ccccc3Oc3ccccc32)nc2ccccc12,330
8,CCN(C)c1cc(C(=O)N[C@@H](Cc2ccccc2)[C@H](O)CNC(C)(C)c2cccc(OC)c2)cc(N2CCCC2=O)c1,70
9,CCC[C@@H]([C@@H](CC(C)C)C(=O)N[C@@H](CCCCNC(=O)c1cccc(OC)c1)C(=O)Nc1nccs1)N(O)C=O,100
10,Cc1cc(N(C)C)nc(Nc2ccc(NC(=O)c3ccccc3F)cc2)n1,1160
11,FC(F)(F)c1ccc2nc(-c3ccc(-c4cccc(CNCc5ccccc5)c4)cc3)[nH]c2c1,220
12,COC(=O)C(C)(C)c1ccc(CC(C)NCC(O)c2cccc(C(F)(F)F)c2)cc1 (stereo unspecified),840
13,COc1ccc(-c2ccccc2CNc2nc(NCCc3ccc(O)cc3)nc(N3CCNCC3)n2)cc1,1080
14,CCCCc1ccc(Cc2cnc3nc(N)nc(N)c3c2C)cc1,230
15,Nc1[nH]c2ccccc2c(=O)c1-c1nc2ccccc2s1,300
16,Cc1ccccc1C1CCN(C2CCC(NC(=O)/C=C/c3ccc(F)cc3)CC2)CC1 (stereo unspecified),1340
17,Brc1cccc(Nc2nccc(Nc3ccc(Oc4ccccc4)cc3)n2)c1,1010
18,CC(C)c1ccc(NC(=O)Nc2ccc(Cn3ncc(N4CCCNCC4)c(Cl)c3=O)cc2)cc1,1050
19,O=C(N[C@H]1CCN(Cc2ccc(OCCN3CCNCC3)c(Cl)c2)C1)c1ccc(Cl)c(Cl)c1,1060
20,Cn1nccc1C(=O)NCCNCc1ccc(-c2ccc(-c3nc4ccccc4[nH]3)s2)cc1,560
21,N#Cc1ccc(-c2ccc(C(=O)NCCCCN3CCC(c4cc(Br)c5c(c4O)CCCC5)CC3)cc2)cc1,150
22,O=C(/C=C/c1ccc(-c2nc3cc(F)c(F)cc3[nH]2)cc1)NCc1ccc(Cl)c(Cl)c1,940
23,OC(CNc1ccnc(Nc2cccc(Cl)c2)n1)c1cccc(F)c1 (stereo unspecified),970
24,O=C(NC1CC1)c1ccc(N2CCC(COc3cccc(F)c3)CC2)nc1,1240

row,Compound,IC50 [nM]
1,N#Cc1ccccc1C(=O)N(Cc1cncn1Cc1cccc(F)c1)CC1CC1,730
2,N#Cc1cccc(Nc2ncc3c(-c4cccc(NC(=O)Cc5cccc(Cl)c5)c4)c[nH]c3n2)c1,420
3,COc1cc2nc(C)nc(Nc3ccc(Cc4ccccc4)cc3)c2cc1OC,730
4,CC1Cc2ccccc2N1CC(=O)Nc1cc(C(F)(F)F)ccc1-n1cncn1 (stereo unspecified),320
5,COc1ccc(-c2ccc(NC(=O)c3ccc(C#N)cc3)cc2)cc1CN1CCC(O)CC1,580
6,COc1ccc(-c2nc(NC(=O)CS(=O)(=O)c3ccc(OC)cc3)sc2C)cc1,300
7,COc1cc2nc(N3CCC(CNC(=O)c4cc5ccccc5s4)CC3)nc(N)c2cc1OC,290
8,c1ccc(CNc2nc(NCCc3cnc[nH]3)nc(N3CCCC4CCCCC43)n2)cc1 (stereo unspecified),830
9,C[C@H](Cc1ccc(C(=O)OCCOC(=O)c2ccc(C[C@@H](C)NC[C@H](O)c3cccc(C(F)(F)F)c3)cc2)cc1)NC[C@H](O)c1cccc(C(F)(F)F)c1,820
10,CCN1CCN(c2cc(C)c3cc(NC(=O)C=Cc4cccc(OC)c4OC)ccc3n2)CC1,700
11,CCc1ccc(NC(=O)c2ccc(CN3CCCN(Cc4cccs4)CC3)cc2)cc1,830
12,COc1ccc2nccc([C@@H](O)CN3CCC(NCc4cc5cc([N+](=O)[O-])ccc5[nH]4)CC3)c2c1,120
13,CCN(CCCN1CCCCC1)c1cc(C)nc(Nc2ccc(Br)cc2F)n1,550
14,Cc1cc(C)c2cc(CNCCCNc3nc4ccccc4[nH]3)[nH]c2c1,770
15,Cc1ccccc1CNc1nccc(NCCC(=O)Nc2ccccc2)n1,890
16,COc1ccc(C(=O)[C@H]2C[C@@H]2CN2CC=C(c3c[nH]c4cccc(Br)c34)CC2)cc1,930
17,CCN(CC)CCCC(C)N=C(Nc1ccc(C#N)cc1O)Nc1ccccc1Br (stereo unspecified),1040
18,O=C(C=Cc1ccc(-c2ccccc2)cc1)N1CCC(CCN2CCC(c3c[nH]c4ccccc34)CC2)CC1,1120
19,CCC(CC)(Cc1ccccc1)NC(=O)[C@H](Cc1ccc(OC)c(OC)c1)Nc1ccc(C#N)c2ccccc12,870
20,COc1ccc(CCN(C)CCc2ccc(NC(=O)c3cccc4c(=O)c5ccccc5sc34)cc2)cc1,860
21,COc1cc(F)c2ncc(Cl)c([C@@H](O)CN3CCC(NCc4cc5c(cn4)OCCO5)CC3)c2c1,100
22,Cc1cccc2[nH]c(-c3ccc(-c4ccc(NC(=O)C(=O)c5cccn5C)cc4)cc3)nc12,820
23,OCCN1CCN(C(=S)Nc2ccccc2)CC1,940
24,CC(C)(C)C(=O)Nc1ccc(N2CCN(C(c3ccccc3)c3ccccc3)CC2)c(Cl)c1,660
